# In paper PMC10004634 (PLOS ONE, 2023):
# Like-named read-outs stand apart in the source and are kept apart here.
# Legend:
# PFCDPK1(P.falciparum) = molecular target: T1, PFCDPK1(P.falciparum) (Plasmodium falciparum, UniProt P62344); experiment: biochemical
# T1 construct: gene CDPK1
# [1] = molecular target: T2, ABL1(T315I)-phosphorylated (Homo sapiens, UniProt P00519, T315I); experiment: biochemical; design: KINOMEscan scanMAX competition binding, DNA-tagged kinases, qPCR read-out, percent control at 300 nM
# T2 construct: phosphorylated
# ABL2 = ABL2 (Homo sapiens, UniProt P42684); experiment: biochemical; design: KINOMEscan scanMAX competition binding, DNA-tagged kinases, qPCR read-out, percent control at 300 nM
# ABL2, sequence (P42684 whole entry): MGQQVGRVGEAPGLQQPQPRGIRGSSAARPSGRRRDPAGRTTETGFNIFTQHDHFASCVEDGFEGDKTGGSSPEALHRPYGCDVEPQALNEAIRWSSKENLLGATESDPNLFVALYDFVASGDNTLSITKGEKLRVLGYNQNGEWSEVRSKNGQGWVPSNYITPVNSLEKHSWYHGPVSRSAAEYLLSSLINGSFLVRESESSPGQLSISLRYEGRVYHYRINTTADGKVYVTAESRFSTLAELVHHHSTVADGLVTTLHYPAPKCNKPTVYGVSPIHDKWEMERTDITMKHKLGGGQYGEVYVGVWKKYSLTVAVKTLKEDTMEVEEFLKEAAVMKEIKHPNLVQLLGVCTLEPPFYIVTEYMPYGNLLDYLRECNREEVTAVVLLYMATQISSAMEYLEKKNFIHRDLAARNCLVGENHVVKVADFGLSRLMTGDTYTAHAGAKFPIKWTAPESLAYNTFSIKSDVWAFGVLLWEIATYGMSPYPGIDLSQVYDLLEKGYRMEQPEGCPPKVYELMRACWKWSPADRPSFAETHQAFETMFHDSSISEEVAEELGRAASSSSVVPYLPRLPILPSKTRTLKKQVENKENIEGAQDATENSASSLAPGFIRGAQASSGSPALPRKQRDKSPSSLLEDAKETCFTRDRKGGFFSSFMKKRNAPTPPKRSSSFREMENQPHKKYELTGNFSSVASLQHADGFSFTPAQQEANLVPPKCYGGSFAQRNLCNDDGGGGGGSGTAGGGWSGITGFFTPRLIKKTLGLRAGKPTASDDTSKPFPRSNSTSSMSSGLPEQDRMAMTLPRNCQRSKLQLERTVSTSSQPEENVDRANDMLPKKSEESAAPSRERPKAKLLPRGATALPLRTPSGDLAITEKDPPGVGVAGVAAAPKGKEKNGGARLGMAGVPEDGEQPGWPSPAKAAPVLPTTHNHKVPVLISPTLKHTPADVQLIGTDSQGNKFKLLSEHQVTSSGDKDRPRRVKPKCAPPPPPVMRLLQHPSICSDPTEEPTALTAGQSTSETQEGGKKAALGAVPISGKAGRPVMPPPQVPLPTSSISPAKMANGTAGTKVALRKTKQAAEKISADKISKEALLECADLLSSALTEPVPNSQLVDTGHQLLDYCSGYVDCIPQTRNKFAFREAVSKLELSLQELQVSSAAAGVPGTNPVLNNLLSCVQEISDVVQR
# CAMKK1 = CAMKK1 (Homo sapiens, UniProt Q8N5S9); experiment: biochemical; design: KINOMEscan scanMAX competition binding, DNA-tagged kinases, qPCR read-out, percent control at 300 nM
# CAMKK1, sequence (Q8N5S9 whole entry): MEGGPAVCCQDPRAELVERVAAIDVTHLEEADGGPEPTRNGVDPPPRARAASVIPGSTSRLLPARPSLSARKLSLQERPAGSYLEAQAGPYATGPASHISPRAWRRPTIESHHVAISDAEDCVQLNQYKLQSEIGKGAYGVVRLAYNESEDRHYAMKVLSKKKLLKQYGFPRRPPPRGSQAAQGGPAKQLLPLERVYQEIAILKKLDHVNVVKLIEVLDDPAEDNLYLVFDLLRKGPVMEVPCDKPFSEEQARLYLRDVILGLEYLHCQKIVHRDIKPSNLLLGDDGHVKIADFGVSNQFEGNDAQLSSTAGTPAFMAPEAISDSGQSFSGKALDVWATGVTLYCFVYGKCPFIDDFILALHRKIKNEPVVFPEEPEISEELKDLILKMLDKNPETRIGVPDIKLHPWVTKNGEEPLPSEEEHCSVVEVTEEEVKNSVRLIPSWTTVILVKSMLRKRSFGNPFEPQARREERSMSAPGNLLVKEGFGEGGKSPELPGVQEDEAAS
# CDK2 = CDK2 (Homo sapiens, UniProt P24941); experiment: biochemical; design: KINOMEscan scanMAX competition binding, DNA-tagged kinases, qPCR read-out, percent control at 300 nM
# FES = FES (Homo sapiens, UniProt P07332); experiment: biochemical; design: KINOMEscan scanMAX competition binding, DNA-tagged kinases, qPCR read-out, percent control at 300 nM
# GRK7 = GRK7 (Homo sapiens, UniProt Q8WTQ7); experiment: biochemical; design: KINOMEscan scanMAX competition binding, DNA-tagged kinases, qPCR read-out, percent control at 300 nM
# KIT(V559D,T670I) = KIT(V559D,T670I) (Homo sapiens, UniProt P10721, T670I/V559D); experiment: biochemical; design: KINOMEscan scanMAX competition binding, DNA-tagged kinases, qPCR read-out, percent control at 300 nM
# KIT(V559D,T670I), sequence (P10721 whole entry V559D/T670I): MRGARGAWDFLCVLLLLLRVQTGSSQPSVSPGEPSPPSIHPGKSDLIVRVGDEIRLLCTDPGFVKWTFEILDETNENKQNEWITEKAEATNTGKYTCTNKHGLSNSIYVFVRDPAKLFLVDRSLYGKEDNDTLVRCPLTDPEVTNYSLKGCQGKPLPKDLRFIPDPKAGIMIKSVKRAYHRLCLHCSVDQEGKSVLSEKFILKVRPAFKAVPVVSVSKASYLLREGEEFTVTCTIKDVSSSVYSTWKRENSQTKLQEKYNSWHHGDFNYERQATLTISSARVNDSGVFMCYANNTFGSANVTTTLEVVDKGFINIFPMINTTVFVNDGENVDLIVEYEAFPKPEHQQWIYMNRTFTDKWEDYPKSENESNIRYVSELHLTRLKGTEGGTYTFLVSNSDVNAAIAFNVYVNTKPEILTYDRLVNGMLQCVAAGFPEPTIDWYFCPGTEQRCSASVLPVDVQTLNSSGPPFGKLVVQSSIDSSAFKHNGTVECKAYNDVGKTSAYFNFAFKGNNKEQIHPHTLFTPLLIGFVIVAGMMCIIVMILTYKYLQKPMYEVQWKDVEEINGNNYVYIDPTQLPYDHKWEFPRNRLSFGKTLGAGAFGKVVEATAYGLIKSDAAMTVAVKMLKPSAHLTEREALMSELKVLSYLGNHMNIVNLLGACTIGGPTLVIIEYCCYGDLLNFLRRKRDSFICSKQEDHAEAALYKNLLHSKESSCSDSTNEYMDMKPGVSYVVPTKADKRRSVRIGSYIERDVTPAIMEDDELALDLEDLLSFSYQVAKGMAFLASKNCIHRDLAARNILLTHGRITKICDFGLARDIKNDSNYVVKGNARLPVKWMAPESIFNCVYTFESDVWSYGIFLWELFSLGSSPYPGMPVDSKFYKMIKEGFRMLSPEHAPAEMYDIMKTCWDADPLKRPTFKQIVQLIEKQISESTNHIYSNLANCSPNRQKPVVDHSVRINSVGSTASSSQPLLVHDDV
# PRKCH = PRKCH (Homo sapiens, UniProt P24723); experiment: biochemical; design: KINOMEscan scanMAX competition binding, DNA-tagged kinases, qPCR read-out, percent control at 300 nM
# PRKCH, sequence (P24723 whole entry): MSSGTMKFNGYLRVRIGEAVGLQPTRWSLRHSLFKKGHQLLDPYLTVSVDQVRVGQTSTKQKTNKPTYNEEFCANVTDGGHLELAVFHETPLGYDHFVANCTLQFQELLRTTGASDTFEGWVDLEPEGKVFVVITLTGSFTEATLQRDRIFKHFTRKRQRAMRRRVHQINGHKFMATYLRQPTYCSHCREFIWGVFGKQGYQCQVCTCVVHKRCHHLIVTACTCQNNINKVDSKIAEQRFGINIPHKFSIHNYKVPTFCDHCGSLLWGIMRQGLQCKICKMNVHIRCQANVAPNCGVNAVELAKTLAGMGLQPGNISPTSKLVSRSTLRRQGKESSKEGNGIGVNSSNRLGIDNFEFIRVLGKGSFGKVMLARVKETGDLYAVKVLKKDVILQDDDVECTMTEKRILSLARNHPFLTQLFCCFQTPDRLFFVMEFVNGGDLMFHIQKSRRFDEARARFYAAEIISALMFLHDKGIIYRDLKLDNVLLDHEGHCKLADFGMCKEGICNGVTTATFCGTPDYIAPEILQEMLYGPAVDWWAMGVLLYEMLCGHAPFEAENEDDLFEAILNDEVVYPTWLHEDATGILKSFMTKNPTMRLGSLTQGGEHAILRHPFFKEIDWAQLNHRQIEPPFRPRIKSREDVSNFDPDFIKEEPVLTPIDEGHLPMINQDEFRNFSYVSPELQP
# RIOK3 = molecular target: T3, RIOK3 (Homo sapiens, UniProt O14730); experiment: biochemical; design: KINOMEscan scanMAX competition binding, DNA-tagged kinases, qPCR read-out, percent control at 300 nM
# T3 sequence (O14730 1-519): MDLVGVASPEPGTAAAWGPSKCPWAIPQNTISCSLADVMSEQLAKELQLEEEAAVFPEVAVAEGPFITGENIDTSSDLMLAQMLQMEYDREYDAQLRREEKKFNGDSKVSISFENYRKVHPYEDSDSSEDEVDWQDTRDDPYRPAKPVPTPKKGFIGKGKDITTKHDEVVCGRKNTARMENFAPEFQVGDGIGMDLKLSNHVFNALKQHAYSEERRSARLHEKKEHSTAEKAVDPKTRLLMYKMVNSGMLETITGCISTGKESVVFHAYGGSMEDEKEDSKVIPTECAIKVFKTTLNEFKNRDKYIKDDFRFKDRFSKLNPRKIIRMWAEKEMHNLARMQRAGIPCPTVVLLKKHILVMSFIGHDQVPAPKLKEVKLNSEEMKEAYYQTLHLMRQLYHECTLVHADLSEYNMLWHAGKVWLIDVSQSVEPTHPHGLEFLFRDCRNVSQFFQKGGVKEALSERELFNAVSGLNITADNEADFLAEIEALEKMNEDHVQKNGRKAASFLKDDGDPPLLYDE
# TIE1 = TIE1 (Homo sapiens, UniProt P35590); experiment: biochemical; design: KINOMEscan scanMAX competition binding, DNA-tagged kinases, qPCR read-out, percent control at 300 nM
# TIE1, sequence (P35590 whole entry): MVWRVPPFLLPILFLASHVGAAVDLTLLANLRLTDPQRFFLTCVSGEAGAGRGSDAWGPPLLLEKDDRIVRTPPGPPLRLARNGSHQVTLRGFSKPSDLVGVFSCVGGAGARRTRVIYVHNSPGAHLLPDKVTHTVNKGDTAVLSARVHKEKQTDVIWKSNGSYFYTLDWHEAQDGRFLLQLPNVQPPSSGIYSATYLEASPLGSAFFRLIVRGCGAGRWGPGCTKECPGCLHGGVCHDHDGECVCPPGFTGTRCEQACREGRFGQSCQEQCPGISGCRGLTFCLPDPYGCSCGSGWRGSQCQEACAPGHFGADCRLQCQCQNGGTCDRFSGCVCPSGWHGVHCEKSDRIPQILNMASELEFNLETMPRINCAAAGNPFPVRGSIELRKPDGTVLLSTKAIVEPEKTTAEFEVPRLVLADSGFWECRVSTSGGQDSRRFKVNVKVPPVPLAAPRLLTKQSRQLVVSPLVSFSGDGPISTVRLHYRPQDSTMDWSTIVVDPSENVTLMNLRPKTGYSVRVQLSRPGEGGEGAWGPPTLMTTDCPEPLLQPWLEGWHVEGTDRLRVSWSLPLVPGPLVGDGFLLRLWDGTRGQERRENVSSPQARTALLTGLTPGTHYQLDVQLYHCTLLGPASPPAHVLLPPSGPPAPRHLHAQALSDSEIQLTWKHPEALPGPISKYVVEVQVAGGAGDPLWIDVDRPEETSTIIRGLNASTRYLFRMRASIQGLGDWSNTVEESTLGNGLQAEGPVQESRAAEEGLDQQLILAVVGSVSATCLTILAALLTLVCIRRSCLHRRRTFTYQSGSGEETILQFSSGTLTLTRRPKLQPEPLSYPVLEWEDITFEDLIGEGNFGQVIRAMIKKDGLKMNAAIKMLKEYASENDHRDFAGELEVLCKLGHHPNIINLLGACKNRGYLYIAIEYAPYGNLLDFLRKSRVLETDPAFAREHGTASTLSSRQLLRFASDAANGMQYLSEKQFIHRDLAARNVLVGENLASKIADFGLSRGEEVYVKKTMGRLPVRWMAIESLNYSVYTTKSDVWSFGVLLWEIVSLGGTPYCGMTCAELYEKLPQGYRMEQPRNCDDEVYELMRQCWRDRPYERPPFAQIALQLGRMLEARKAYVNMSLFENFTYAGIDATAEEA
# FYN = FYN (Homo sapiens, UniProt P06241); experiment: mobility shift assay (MSA)
# CSK = CSK (Homo sapiens, UniProt P41240); experiment: mobility shift assay (MSA)
# TXK = molecular target: T4, TXK (Homo sapiens, UniProt P42681); experiment: Z'-Lyte kinase inhibition assay; assay type: biochemical; design: purchased Thermo Fisher Scientific (Invitrogen Z'-Lyte service); details: 60 min preincubation
# T4 sequence (P42681 1-527): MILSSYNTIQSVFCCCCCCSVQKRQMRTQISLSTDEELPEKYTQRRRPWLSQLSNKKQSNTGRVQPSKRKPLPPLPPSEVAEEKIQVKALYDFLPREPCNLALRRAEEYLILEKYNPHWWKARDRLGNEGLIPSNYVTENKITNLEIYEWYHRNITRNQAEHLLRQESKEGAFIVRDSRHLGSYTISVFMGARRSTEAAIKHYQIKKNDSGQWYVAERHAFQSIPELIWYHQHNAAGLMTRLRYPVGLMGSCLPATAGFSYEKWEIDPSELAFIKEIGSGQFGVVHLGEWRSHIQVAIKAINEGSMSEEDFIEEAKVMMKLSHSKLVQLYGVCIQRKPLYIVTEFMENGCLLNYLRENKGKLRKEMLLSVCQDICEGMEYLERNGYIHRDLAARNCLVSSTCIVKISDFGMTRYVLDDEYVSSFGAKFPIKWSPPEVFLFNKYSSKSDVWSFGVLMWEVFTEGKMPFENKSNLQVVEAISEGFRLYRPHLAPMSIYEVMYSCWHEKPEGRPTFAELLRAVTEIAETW
# Method: In all the assays, each test compound was preincubated with peptide/kinase mixture or kinase/antibody mixture for 60 min at room temperature before adding the ATP solution or AlexaFluor labeled Tracer to initiate the 60-min incubation of the reactants.
# TIE2 = molecular target: T5, TIE2 (Homo sapiens, UniProt Q02763); experiment: biochemical; design: KINOMEscan scanMAX competition binding, DNA-tagged kinases, qPCR read-out, percent control at 300 nM
# T5 construct: gene TEK
# [2] = molecular target: T6, TYK2(JH1domain-catalytic) (Homo sapiens, UniProt P29597); experiment: biochemical; design: KINOMEscan scanMAX competition binding, DNA-tagged kinases, qPCR read-out, percent control at 300 nM
# T6 construct: JH1domain-catalytic
# [3] = read-out: Percent control / Acalabrutinib
# [4] = read-out: Percent control / Ibrutinib
# [5] = read-out: Percent control / Tirabrutinib
# [6] = read-out: Percent control / Zanubrutinib
# T1 sequence (P62344 whole entry): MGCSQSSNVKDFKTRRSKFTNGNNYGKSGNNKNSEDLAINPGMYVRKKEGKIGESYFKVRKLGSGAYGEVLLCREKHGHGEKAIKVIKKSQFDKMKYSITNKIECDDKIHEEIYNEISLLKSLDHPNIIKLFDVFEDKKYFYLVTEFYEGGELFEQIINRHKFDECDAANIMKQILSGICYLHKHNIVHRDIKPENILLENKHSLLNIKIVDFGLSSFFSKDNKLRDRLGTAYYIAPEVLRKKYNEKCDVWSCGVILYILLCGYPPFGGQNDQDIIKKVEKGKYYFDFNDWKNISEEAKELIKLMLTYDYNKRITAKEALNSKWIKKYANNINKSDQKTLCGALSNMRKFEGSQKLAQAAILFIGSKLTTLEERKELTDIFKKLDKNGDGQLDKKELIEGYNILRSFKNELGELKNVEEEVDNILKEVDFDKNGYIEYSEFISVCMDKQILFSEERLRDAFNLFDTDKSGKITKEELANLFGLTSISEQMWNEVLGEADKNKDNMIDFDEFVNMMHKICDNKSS
smiles,measurement,setting,value
CC#CC(=O)N1CCC[C@H]1c1nc(-c2ccc(C(=O)Nc3ccccn3)cc2)c2c(N)nccn12 [Acalabrutinib],remaining activity at 0.3 µM,PFCDPK1(P.falciparum); [3],23%
same,remaining binding at 0.3 µM,[1]; [3],97%
same,remaining binding at 0.3 µM,ABL2; [3],97%
same,remaining binding at 0.3 µM,CAMKK1; [3],92%
same,remaining binding at 0.3 µM,CDK2; [3],86%
same,remaining binding at 0.3 µM,FES; [3],90%
same,remaining binding at 0.3 µM,GRK7; [3],74%
same,remaining binding at 0.3 µM,"KIT(V559D,T670I); [3]",78%
same,remaining binding at 0.3 µM,PRKCH; [3],94%
same,remaining binding at 0.3 µM,RIOK3; [3],90%
same,remaining binding at 0.3 µM,TIE1; [3],86%
same,IC50,FYN,> 10000 nM
same,IC50,CSK,6.65 µM
same,IC50,TXK,273 nM
C=CC(=O)N1CCC[C@@H](n2nc(-c3ccc(Oc4ccccc4)cc3)c3c(N)ncnc32)C1 [Ibrutinib],remaining activity at 0.3 µM,PFCDPK1(P.falciparum); [4],0.9%
same,remaining binding at 0.3 µM,ABL2; [4],82%
same,remaining binding at 0.3 µM,PRKCH; [4],90%
same,remaining binding at 0.3 µM,RIOK3; [4],89%
same,remaining binding at 0.3 µM,TIE1; [4],75%
same,remaining binding at 0.3 µM,TIE2; [4],72%
same,remaining binding at 0.3 µM,[2]; [4],87%
CC#CC(=O)N1CC[C@@H](n2c(=O)n(-c3ccc(Oc4ccccc4)cc3)c3c(N)ncnc32)C1 [Tirabrutinib],remaining binding at 0.3 µM,[1]; [5],73%
same,remaining binding at 0.3 µM,CDK2; [5],82%
same,remaining binding at 0.3 µM,"KIT(V559D,T670I); [5]",98%
same,remaining binding at 0.3 µM,PRKCH; [5],91%
same,remaining binding at 0.3 µM,TIE1; [5],90%
same,IC50,FYN,2220 nM
same,IC50,CSK,0.449 µM
same,IC50,TXK,54.5 nM
C=CC(=O)N1CCC([C@@H]2CCNc3c(C(N)=O)c(-c4ccc(Oc5ccccc5)cc4)nn32)CC1 [Zanubrutinib],remaining activity at 0.3 µM,PFCDPK1(P.falciparum); [6],7.4%
same,remaining binding at 0.3 µM,ABL2; [6],77%
same,remaining binding at 0.3 µM,CAMKK1; [6],87%
same,remaining binding at 0.3 µM,CDK2; [6],99%
same,remaining binding at 0.3 µM,FES; [6],100%
same,remaining binding at 0.3 µM,GRK7; [6],100%
same,remaining binding at 0.3 µM,"KIT(V559D,T670I); [6]",62%
same,remaining binding at 0.3 µM,PRKCH; [6],97%
same,remaining binding at 0.3 µM,RIOK3; [6],100%
same,remaining binding at 0.3 µM,TIE1; [6],98%
same,remaining binding at 0.3 µM,TIE2; [6],99%
same,remaining binding at 0.3 µM,[2]; [6],82%
same,IC50,TXK,4.59 nM
